The target in data set [1] is T1, AChE (Homo sapiens, UniProt P22303).
T1 construct: purchased Sigma-Aldrich
Kind of data set: biochemical. Particulars: for Selectivity Index: Selectivity index = IC50 (BuChE)/IC50 (AChE); for IC50: mean ± SD of three independent experiments. On the procedure: (§1) Five different concentrations (10^−4–10^−9 M) of each compound were tested for the inhibitory activity for AChE and BuChE. 10 μL 0.86 U/mL AChE or BuChE, 60 μL 0.1 M phosphate buffer (pH 8.0), and 10 μL test compounds were incubated together at 37 °C for 10 min. An amount of 20 μL 10 mmol/L […] or butylthicoline iodide was added and the solution was incubated at 37 °C for 10 min again. Then 20 μL 5 mmol/L 5,5′-dithiobis-(2-nitrobenzoic acid) (DTNB) and 30 μL 1% sodium dodecyl sulfatesodium salt (SDS) were added. […] Each concentration was analyzed three times, and the IC50 value was calculated from the concentration-inhibition response curve on logarithmic scale.

The target in another data set is T2, BuChE (Homo sapiens, UniProt P06276).
T2 construct: purchased Sigma-Aldrich
T2 sequence (P06276 29-602): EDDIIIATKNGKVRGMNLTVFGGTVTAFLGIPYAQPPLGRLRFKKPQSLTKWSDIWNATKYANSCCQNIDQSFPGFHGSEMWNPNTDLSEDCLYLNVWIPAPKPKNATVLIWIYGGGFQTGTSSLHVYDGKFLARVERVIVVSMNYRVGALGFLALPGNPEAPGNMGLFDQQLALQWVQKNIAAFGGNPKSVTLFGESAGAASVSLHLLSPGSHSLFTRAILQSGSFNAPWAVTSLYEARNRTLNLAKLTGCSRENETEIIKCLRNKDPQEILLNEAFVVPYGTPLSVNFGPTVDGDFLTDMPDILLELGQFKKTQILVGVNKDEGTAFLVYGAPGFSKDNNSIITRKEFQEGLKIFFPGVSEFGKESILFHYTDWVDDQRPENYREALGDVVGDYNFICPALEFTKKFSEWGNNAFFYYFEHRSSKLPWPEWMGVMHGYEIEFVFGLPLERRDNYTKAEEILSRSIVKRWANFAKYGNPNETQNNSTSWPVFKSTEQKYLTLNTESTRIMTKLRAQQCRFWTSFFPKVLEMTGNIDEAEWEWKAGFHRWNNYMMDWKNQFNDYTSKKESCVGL
As to the kind of experiment: biochemical. Particulars: mean ± SD of three independent experiments. On the procedure:
as §1

The target in another data set is T3, Aβ (1–42) (Homo sapiens, UniProt P05067).
T3 construct: An amount of 250 μg Aβ (1–42) was dissolved; purchased Sigma-Aldrich
T3 sequence (P05067 672-713): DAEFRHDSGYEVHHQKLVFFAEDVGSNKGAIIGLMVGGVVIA
Kind of data set: Inhibition of self-induced Aβ (1–42) aggregation, thioflavin T-based fluorometric assay. The class given is biochemical. Particulars: 20 μM compounds, 20 μM Aβ (1–42), 37 °C, 48 h; mean ± SD. On the procedure: TFAs 8a–e were tested for their ability to inhibit self-induced Aβ (1–42) aggregation by a thioflavin T-based fluorometric assay, and curcumin and ferulic acid were used as reference compounds.
An amount of 250 μg Aβ (1–42) was dissolved in 1 mL hexafluoroisopropanol (HFIP) and lyophilizated, then dissolved in 25 μL DMSO and 150 μL 50 mM phosphate buffer saline (PBS). For the self-induced assay, 10 μL of Aβ (1–42) was incubated with 10 μL test compounds, both at a final concentration of 20 μM, at 37 °C for 48 h. Then, 40 μL PBS and 100 μL 5 μM thioflavin T (ThT) in 50 mM glycine-NaOH buffer (pH 8.5) was added. […] The percent inhibition of the self-induced aggregation due to the presence of the test compound was calculated by the following expression: 100 − (IFi/IF0 × 100) where IFi and IF0 are the fluorescence intensities with and without test compound, respectively, minus the fluorescence intensities due to the respective blanks.

The target in data set [2] is T1, AChE. As to the kind of experiment: Kinetic analysis of AChE inhibition (Lineweaver-Burk). Particulars: Lineweaver-Burk reciprocal plots, six substrate concentrations. Type of data set: biochemical. On the procedure: Kinetic characterization of AChE was performed as the reported method using six different substrate concentrations (50, 90, 150, 266, 452, and 904 μM). An amount of 60 µL PBS, 20 µL DTNB, 10 µL AChE, and 10 µL inhibitor were mixed together and pre-incubated for 10 min, followed by the addition of 20 μL different substrate and then incubated for 15 min. After that, 30 μL 1% SDS was added. Kinetic characterization of the hydrolysis of acetylthiocholine chloride catalyzed by AChE was done spectrometrically at 415 nm. A parallel control with no inhibitor in the mixture, allowed adjusting activities to be measured.

Data set [3] in a line: Cu2+-chelating properties assay by UV spectrometry. Type of data set: physicochemical. To be noted: 8d 40 μM with 10, 20, 40 μM CuCl2 in MeOH, UV 220–400 nm. On the procedure:
In recent years, there is mounting evidence to support the theory that endogenous copper can be involved as factors or cofactors in the etiopathogenesis of AD, and modulating Cu^2+ in the brain should be to the benefit of AD treatment. The chelating effect of 8d for Cu^2+ was studied by ultra violet (UV) spectrometry with wavelength ranging from 220 to 400 nm.
The complexing studies were determined using a UV spectrophotometer (Beckman Coulter Inc., Brea, CA, USA). Compound 8d (40 µM) in methanol was mixed with 10, 20, 40 µM CuCl2, and then incubated at room temperature for 5 min. The absorption spectra were recorded from 220 nm to 400 nm after incubation.

A further data set deals with Neuro-2A cells. Kind of data set: Protective effect against Aβ-induced neurotoxicity, MTT viability assay. Type of data set: cell-based. Particulars: 8d 5 or 10 μM with 10 μM Aβ (1–42), 48 h, p < 0.05. On the procedure:
To investigate the protective effect of 8d against Aβ-induced cytotoxicity, 8d (0, 5 or 10 μM) and 10 μM Aβ (1–42) was directly added into the medium of the Neuro-2A cells. The cells were incubated for 48 h.
Neuro-2A cell were grown in dulbecco’s modified eagle medium (DMEM) plus 1% glutamine and 10% heat-inactivated fetal bovine serum. The assays were performed in 96-well microtiter plates. Cells were treated with or without lyophilizated Aβ (1–42) (10 μM), or different concentrations of 8d (5, 10 μM) combination and incubated for 48 h. Then, 10 µL of MTT (5 mg/mL) was added to each well and incubated for four hours, and then the liquid in the wells was removed. DMSO (150 µL) was added to each well. The absorbance was recorded using a microplate reader at a wavelength of 570 nm.
Neuroprotective effect of 8d were evaluated by cells treated with 8d at the concentration of 0, 5 or 10 μM in the presence of 10 μM Aβ for 48 h; Vehicle group was treated with solvent. The cell viability was assessed using the 3-[4,5-dimethylthylthiazol-2-yl]-2,5 diphenyltetrazoliumbromide (MTT) assay. Data are from three independent experiments and are expressed as the mean ± SD values. ** p < 0.01 compared to vehicle. * p < 0.05, represents significant differences from the control group.
(In general: Tetrazolium assays rely on reduction of a dye to a coloured formazan, in cell work by metabolically active cells.)

As usually defined, the IC50 is the concentration that gives 50% inhibition. The inhibition is the drop in the measured response relative to a control, in per cent. Read a low inhibition as a weak effect.

T1 sequence (P22303 32-614): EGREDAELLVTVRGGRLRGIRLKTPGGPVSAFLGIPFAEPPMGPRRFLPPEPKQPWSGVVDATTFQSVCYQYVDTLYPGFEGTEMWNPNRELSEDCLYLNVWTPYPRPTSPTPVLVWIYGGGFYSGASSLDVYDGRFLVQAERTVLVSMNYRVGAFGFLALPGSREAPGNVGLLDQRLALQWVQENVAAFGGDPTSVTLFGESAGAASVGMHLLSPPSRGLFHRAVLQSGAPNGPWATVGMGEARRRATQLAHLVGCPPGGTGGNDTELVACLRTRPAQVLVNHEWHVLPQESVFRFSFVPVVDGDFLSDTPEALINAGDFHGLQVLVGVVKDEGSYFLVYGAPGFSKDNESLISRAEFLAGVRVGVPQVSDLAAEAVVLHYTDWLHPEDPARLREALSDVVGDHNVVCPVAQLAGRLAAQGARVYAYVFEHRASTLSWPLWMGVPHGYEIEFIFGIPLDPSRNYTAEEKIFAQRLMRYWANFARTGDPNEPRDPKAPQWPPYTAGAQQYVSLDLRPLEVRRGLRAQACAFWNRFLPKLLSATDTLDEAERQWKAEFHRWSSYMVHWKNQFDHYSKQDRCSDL

For the compound `COC(=O)/C=C/c1ccc(OCCN2CCN(CC(=O)Nc3c4c(nc5ccccc35)CCCC4)CC2)c(OC)c1` [Compound 8a, Methyl (E)-3-(3-methoxy-4-(2-(4-(2-oxo-2-((1,2,3,4-tetrahydroacridin-9-yl)amino)ethyl)piperazin-1-yl)ethoxy)phenyl)acrylate], on AChE [1], the “Selectivity Index” value is on record as 0.660 and the IC50 is 306 ± 12.4 nM. The same compound yielded an IC50 against BuChE of 203 ± 35.7 nM. The same compound showed an inhibition at 20 µM on Aβ (1–42) of 26.1 ± 4.5%.

For the compound `COC(=O)/C=C/c1ccc(OCCCN2CCN(CC(=O)Nc3c4c(nc5ccccc35)CCCC4)CC2)c(OC)c1` [Compound 8b, Methyl (E)-3-(3-methoxy-4-(3-(4-(2-oxo-2-((1,2,3,4-tetrahydroacridin-9-yl)amino)ethyl)piperazin-1-yl)propoxy)phenyl)acrylate], at AChE [1], the “Selectivity Index” value is 1.326 and the IC50 came to 90.3 ± 7.3 nM. Also, at BuChE, 120 ± 12.5 nM corresponded to half-maximal inhibition (IC50). For the same compound, the inhibition at 20 µM at Aβ (1–42) came to 19.5 ± 2.7%.

Consider `COC(=O)/C=C/c1ccc(OCCCCN2CCN(CC(=O)Nc3c4c(nc5ccccc35)CCCC4)CC2)c(OC)c1` [Compound 8c, Methyl (E)-3-(3-methoxy-4-(4-(4-(2-oxo-2-((1,2,3,4-tetrahydroacridin-9-yl)amino)ethyl)piperazin-1-yl)butoxy)phenyl)acrylate], for which, on AChE [1], the “Selectivity Index” value stood at 4.087 and the IC50 worked out at 52.7 ± 8.2 nM. The IC50 on BuChE was determined as 215 ± 33.7 nM. On Aβ (1–42), the inhibition at 20 µM came to 18.5 ± 4%.

On to `COC(=O)/C=C/c1ccc(OCCCCCN2CCN(CC(=O)Nc3c4c(nc5ccccc35)CCCC4)CC2)c(OC)c1` [Compound 8d, Methyl (E)-3-(3-methoxy-4-((5-(4-(2-oxo-2-((1,2,3,4-tetrahydroacridin-9-yl)amino)ethyl)piperazin-1-yl)pentyl)oxy)phenyl)acrylate], for which, on AChE [1], the “Selectivity Index” value was determined as 1.733 and the IC50 amounted to 61.7 ± 5.2 nM. This compound also came in with an IC50 against BuChE of 107 ± 13.1 nM. The “mechanism of AChE inhibition” value on AChE [2] is “mixed-type inhibitors”. In data set [3], the “chelating effect for Cu^2+ (in words)” value is on record as “complex 8d-Cu^2+ had been produced”. On Aβ (1–42), this compound showed an inhibition at 20 µM of 37.2 ± 0.9%. Also, the “cell viability compared with Aβ-treated alone group (in words)” value with Neuro-2A cells was “significant dose-dependent increase in cell viability”.

For `COC(=O)/C=C/c1ccc(OCCCCCCN2CCN(CC(=O)Nc3c4c(nc5ccccc35)CCCC4)CC2)c(OC)c1` [Compound 8e, Methyl (E)-3-(3-methoxy-4-((6-(4-(2-oxo-2-((1,2,3,4-tetrahydroacridin-9-yl)amino)ethyl)piperazin-1-yl)hexyl)oxy)phenyl)acrylate], the “Selectivity Index” value on AChE [1] is on record as 1.059. The figures for the IC50 at AChE [1] and against BuChE were 184 ± 15.2 nM and 196 ± 3.5 nM, respectively. The compound further yielded an inhibition at 20 µM on Aβ (1–42) of 35.1 ± 3.2%.

As to `COc1cc(/C=C/C(=O)CC(=O)/C=C/c2ccc(O)c(OC)c2)ccc1O` [curcumin, reference compound], the inhibition at 20 µM at Aβ (1–42) stood at 37.3 ± 1.2%.

Compound `COc1cc(/C=C/C(=O)O)ccc1O` [ferulic acid] yielded an inhibition at 20 µM at Aβ (1–42) of 36.5 ± 3.6%.

The values are drawn from publication PMC6273353, “Design, Synthesis and Evaluation of Novel Tacrine-Ferulic Acid Hybrids as Multifunctional Drug Candidates against Alzheimer’s Disease” (Molecules, 2016).
